Assay results reported in US10087465B2, “Trans-acting elements for intracellular delivery of nucleic acid sequences” (The United States of America, as Represented by the …, priority 2014, dated 2018).
Entries after “also recorded” stand apart in the source; their conditions may differ. {F1} = fluorescein label

What was measured:
Format in all cases: cell-based
[1] = tested on: HEK 293, HeLa, HeLa pLuc705, MCF7 and SK—N—SH live cells; assay: Flow cytometry (FACS) analysis of cellular uptake of fluorescently-labeled PNA or PMO oligomers in live cells
Method: (§1) Complex formation between PNA or PMO oligomers and dTtaPS or dAtaPS: Appropriate amounts of PNA or PMO oligomers were diluted in serum-free OptiMEM™ (20 μl). dTtaPS or dAtaPS was added to the oligomer solution to achieve a final concentration that is twice that of the oligomer. After 30 min incubation at 37° C., the PNA or PMO oligomer: dTtaPS or dAtaPS complexes were stored at 4° C. for 15 minutes or until used. Stock solutions (2×) of the complexes were made by adding OptiMEM™ to appropriate volumes.
Flow cytometry analysis of cellular uptake in live cells: The internalization of fluorescently-labeled PNA or PMO sequences (Table 1) in HEK 293, HeLa, MCF7 and SK—N—SH cells was assessed by flow cytometry. Cells were seeded in a 96-well plate (10^4 cells/well) and allowed to grow at 37° C. for 24 h in 10% FBS-MEM. The culture medium of each well was then replaced with fresh medium (100 μl) containing any of the fluorescently-labeled PNA or PMO sequences, the final concentration of which was 1 μM. After an incubation of 18 h at 37° C., the medium was removed from each well by suction and 0.25% Trypsin (50 μl) was added. Upon complete cell detachment, a solution (100 μl) of ice-cold 2% FBS in phosphate-buffered saline (PBS, pH 7.4) was added to each well. The cells were collected into tubes, to which was added 0.4% Trypan blue (50 μl) and 200 µM monensin (20 μl), and analyzed by fluorescence-activated cell sorting (FACS) using a BD FACScan™ flow cytometer. A total of 5000 events were counted and the results were reported as a percentage of the cells that have internalized the fluorescently-labeled oligomers.

HeLa pLuc 705 cells [2] = assay: Confocal microscopy analysis of dTtaPS-assisted internalization of PNA or PMO oligomers; conditions: dTtaPS-assisted uptake; oligomer 1.0, dTtaPS 2.0 μM; 12 h at 37° C.
Method: Confocal microscopy analysis of dTtaPS-assisted internalization of PNA or PMO oligomers in HeLa pLuc 705 cells: HeLa pLuc 705 cells (5×10^4 cells/well) were seeded in 8-well chambered slides and cultured for 24 h at 37° C. in 10% FBS-MEM (200 μl). The culture medium of each well was then replaced with 20% FBS containing fresh medium (200 μl) and the fluoresceinated PNA or PMO oligomer:dTtaPS complex that was prepared as described above to provide an oligomer and dTtaPS final concentration of […] and 2.0 μM, respectively. After a 12 h incubation at 37° C., the medium was removed and a 0.4% Trypan Blue solution (200 μl) was added to quench the fluorescence stemming from extracellular fluoresceinated oligonucleotides. After a period of 5 minutes at ambient temperature, the cells were washed twice with PBS (pH 7.4, 200 μl) followed by the addition of fresh phenol red-free DMEM (200 μl) supplemented with 10% FBS. The intracellular distribution of fluorescence was determined without fixation using a Leica SP8 confocal microscope system and analysed using the Leica LASAF software. Hoechst 33342 was used, in accordance with the manufacturer's staining protocols, for the detection of nuclei. Images were acquired at a 63× magnification.

HeLa pLuc705 cells [3] = assay: Luciferase splice correction assay; conditions: for luciferase activity / internalization of the oligomer in the absence of PS-dT8[3+] (dTtaPS): no transfection element
Method: The efficiency of PS-dT8[3+] in the cellular uptake of polyA-tailed PNA oligomers was assessed through the luciferase splice correction assay in which the mutated intron 2 of the human β-globin gene has been inserted within the coding sequence of a luciferase reporter gene (pLuc705). The activation of a cryptic splice site in this intron leads to a defective luciferase enzyme. In the presence of a PNA oligomer complementary to the aberrant splice site, correct splicing is restored and results in an active luciferase. A concentration-dependence of splice correction activity by PS-dT8[3+]-mediated internalization of the PNA oligomer 10 in HeLa pLuc705 cells is shown in FIG. 12.
as §1
Luciferase assay protocol: HeLa pLuc 705 cells were seeded in a 96-well plate (2×10^4 cells/well) and allowed to grow at 37° C. for 18 h in 10% FBS-DMEM. The culture medium of each well was then replaced with either fresh serum-free or 20% serum-containing OptiMEM™ (50 μl) for experiments intended to be performed in serum-free or in 10% serum-containing media. A 2× solution of PNA or PMO oligomer:dTtaPS or dAtaPS complexes (50 μl) was added to the cells in order to achieve pre-determined complex concentrations, as indicated in the Figures. After a 4-hour incubation at 37° C., 20% FBS in OptiMEM™ (100 μl was added to serum-free experiments and cells were incubated for an additional 18 h at 37° C. The media was then removed by suction and the cells were mixed with a cell lysis reagent (50 μl) and agitated at ambient temperature for 10 minutes. The cell lysate (30 μl) was placed in a white 96-well plate and Bright-Glo™ reagent (20 μl) was added. Luciferase activity was measured using a microplate reader. For each well, luminescence was integrated over a period of 1 sec and recorded as relative light units (RLU). Luminescence measurements were normalized to the amount of protein present in the test sample.
Appropriate amounts of PNA/PMO oligomers were diluted in OptiMEM™ (20 μL) to achieve the concentration of 1 μM or as indicated in the Figures. PS-dT8[3+] or PS-dAs[3+] was added to the above oligomer solutions. After a 30 min incubation at 37° C., the PNA/PMO oligomer:PS-dT8[3+] or PS-dA8[3+] complexes were removed and kept at 4° C. for 15 minutes or until used. Stock solutions of the complexes were made by adding OptiMEM™ to appropriate volumes.
Luciferase Assay: Prior to performing experiments, HeLa pLuc 705 cells were seeded in a 96-well plate (2×10^4 cells/well) and allowed to grow at 37° C. for 18 h in 10% FBS DMEM. The culture medium of each well was then replaced with either fresh 50 μL serum free or 20% serum-containing OptiMEM™ for experiments intended to be performed in serum free or in 10% serum-containing media. A 2× solution of the PNA/PMO oligomer:PS-dT8[3+] or PS-dAs[3+] complexes (50 μL) was added to the cells in order to achieve a pre-determined concentration as indicated in the figures. After a 4-hour incubation at 37° C., 20% FBS in OptiMEM (100 μL) was added to serum free experiments and cells were incubated for an additional 18 h at 37° C. The media was then removed by suction and the cells were mixed with a cell lysis reagent (50 μL) and agitated at ambient temperature over a period of 10 minutes. The cell lysate (30 μL) was placed in white 96-well plate and Bright-Glow™ reagent (20 μL) was added. Luciferase activity was measured using a microplate reader. […]

HeLa pLuc705 cells [4] = assay: Cytotoxicity study with commercial cell-counting kit (CCK-8); conditions: oligomer 1.0 μM, dTtaPS 2.0 μM; 18 h; compared to medium or absence of dTtaPS
Method: Flat-bottom 96-well plates were purchased from BD-Falcon. The CCK-8 Kit for cytotoxicity studies was purchased from Dojindo Molecular Technologies.
The cytotoxicity of PNA oligomer 10:dTtaPS and PMO oligomer 21:dTtaPS complexes in HeLa pLuc 705 cells was evaluated over a period of 18 h using a commercial cell-counting kit.

HeLa pLuc 705 cells [5] = assay: Energy-dependence of the dTtaPS-assisted internalization of PNA oligomer 10; conditions: dTtaPS-mediated uptake; incubation of 1 h
Method: Energy-dependence of the dTtaPS-assisted internalization of PNA oligomer 10 in HeLa pLuc 705 cells: HeLa pLuc 705 cells were seeded in a 96-well plate (2×10^4 cells/well) and allowed to grow at 37° C. for 18 h in 10% FBS-DMEM. While the cell culture was maintained at 37° C. or 4° C., a 2× solution of a PNA oligomer 10:dTtaPS complex was prepared as described above. The cell culture medium was replaced with the PNA oligomer:dTtaPS complex solution to provide an oligomer and dTtaPS final concentration of […], respectively. After an incubation of 1 h at 37° C. or 4° C., the medium was removed by suction and luciferase activity was measured as described above in the Luciferase assay protocol. Luminescence measurements were normalized to the amounts of protein present in the test samples and reported as percent luminescence remaining relative to that of the experiment performed at 37° C.

HeLa pLuc 705 cells [6] = assay: Competition assay with PS-dT8 (luciferase readout); conditions: PNA oligomer 10 1.0 μM, dTtaPS 1.0 μM, PS-dT8 1.0, 2.0 or 4.0 μM
Method: Competition assay: HeLa pLuc 705 cells were seeded in a 96-well plate and grown in 10% FBS-DMEM as described above. Predetermined amounts of polyA-tailed PNA oligomer 10 and octathymidilyl DNA phosphorothioate (PS-dT8) were placed in individual microfuge tubes so that the molar ratio of PNA:PS-dT8 in each tube was 1:1, 1:2 or 1:4. OptiMEM™ (20 μl) was added to each of the three tubes, which were then placed in a heating block pre-heated to 60° C. After 2 min, the tubes were removed from the heating block, allowed to cool slowly to 20° C., and then, left standing in a cold room (4° C.) for 15 min. dTtaPS was added to the mixture of oligomers of each tube to achieve a concentration that is equimolar to that of the PNA oligomer 10. After a 30 min incubation at 37° C., the PNA/PS-dT8:dTtaPS complexes were stored at 4° C. for 15 minutes or until used. […] The cells were then incubated for an additional 30 min at 37° C., whereupon luciferase activity was measured as described above in the Luciferase assay protocol. Luminescence measurements were normalized to the amounts of protein present in the test samples and reported as percent luminescence remaining relative to that of the experiment performed in the absence of PS-dT8.

Substance: PMO oligomer 18: commercial PMO, CCTCTTACCTCAGTTACA-AAAAAA-F1, SEQ ID NO. 12 (CCTCTTACCTCAGTTACAAAAAAA; all phosphorodiamidate morpholino (PMO), 3' {F1})
- PS-dT8[3+] (dTtaPS)-mediated delivery of fluoresceinated PMO oligomers ([1]; PMO oligomer 1 μM, PS-dT8[3+] 2 μM, all cell lines, FIG. 17, listed as 18): confirmed the dTtaPS-assisted delivery
- intracellular distribution of fluorescence (HeLa pLuc 705 cells [2]): endosomal sequestration of 18 and modest nuclear fluorescence

Substance: PMO oligomer 21: commercial PMO, CCTCTTACCTCAGTTACA-AAAAAA, SEQ ID NO. 15 (CCTCTTACCTCAGTTACAAAAAAA; all phosphorodiamidate morpholino (PMO))
- luciferase activity / internalization of the oligomer in the absence of PS-dT8[3+] (dTtaPS) (HeLa pLuc705 cells [3]; listed as 21): reduced to that of the negative control oligomer 22
- cytotoxicity of oligomer:dTtaPS complexes (HeLa pLuc705 cells [4]): did not induce significant cytotoxicity

Substance: PNA oligomer 7: commercial PNA, F1-CCTCTTACCTCAGTTACA-AAAAAA-NH2, SEQ ID NO. 1 (CCTCTTACCTCAGTTACAAAAAAA; all peptide nucleic acid (PNA), 5' {F1}; PNA with C-terminal amide, further chemistry not fully specified)
- mean fluorescence intensity (MFI) after internalization, relative to that of PMO oligomer 18 ([1]; dTtaPS-mediated uptake, FACS analysis): ~10 fold
- PS-dT8[3+] (dTtaPS)-mediated cellular internalization of fluoresceinated PNA oligomers ([1]; in the presence of PS-dT8[3+], oligomer 1 μM, all cell lines under study, FIG. 11): efficiently internalized
- intracellular distribution of fluorescence (HeLa pLuc 705 cells [2]): endosomal sequestration of 7 is predominant

Substance: PNA oligomer 10: commercial PNA, H-CCTCTTACCTCAGTTACA-AAAAAA-NH2, SEQ ID NO. 4 (CCTCTTACCTCAGTTACAAAAAAA; all peptide nucleic acid (PNA); PNA with C-terminal amide)
- luciferase activity / internalization upon PS-dA8[3+] (dAtaPS)-mediated delivery of PNA oligomers (HeLa pLuc705 cells [3]; PS-dA8[3+] 2.0 μM, compared with PS-dT8[3+]:10 complex, FIG. 16, listed as 10): No significant level of luciferase activity was detected; also recorded: Poor luciferase activity
- luciferase activity (splice correction) upon PS-dT8[3+] (dTtaPS)-assisted delivery of PNA oligomers (HeLa pLuc705 cells [3]; PS-dT8[3+] 2 μM, FIG. 12, 13, 15, listed as 10): induced splice correction of the pre-mRNA encoding luciferase, in a dose-dependent manner
- luciferase activity / internalization of the oligomer in the absence of PS-dT8[3+] (dTtaPS) (HeLa pLuc705 cells [3]): no luciferase activity was detected
- cytotoxicity of oligomer:dTtaPS complexes (HeLa pLuc705 cells [4]): did not induce significant cytotoxicity
- decrease of luciferase activity production at 4° C. relative to 37° C. (HeLa pLuc 705 cells [5]): at least 50%

Substance: octathymidilyl DNA phosphorothioate [PS-dT8]
- decrease of luciferase activity production relative to control without PS-dT8 (HeLa pLuc 705 cells [6]): ≤ 80%
